The target in one data set is HDAC1 (Homo sapiens (Human), UniProt Q13547). Nature of the data set: HDAC inhibitory activity assay (as described in WO2008/062201), HDAC1. The class given is biochemical.
The target of another data set is HDAC6 (Homo sapiens (Human), UniProt Q9UBN7). The data set is described as follows: HDAC inhibitory activity assay (as described in WO2008/062201), HDAC6. The format is biochemical.
The nature of data set [1]: Comparative mouse pharmacokinetics (oral bioavailability). Particulars: in vivo, read-out: Oral bioavailability, F %.
Another data set concerns PC-3. Nature of the data set: In vitro cancer cell growth inhibition, PC-3. The settings on record: Homo sapiens; PC-3 cancer cell growth inhibition. The class given is cell-based. An excerpt: (§1) In Vitro Cancer Cell Growth Inhibition Data for Compound A
Another data set has as its system A549. Nature of the data set: In vitro cancer cell growth inhibition, A549. The class given is cell-based. The settings on record: Homo sapiens.
From the text: as §1

Where [2] appears, read: class symbol, read-out: IC50, HDAC1.
Where [3] appears, read: class symbol, read-out: IC50, HDAC6.

28 compounds from patent publication US10150763B2, “Histone deacetylase inhibitors and their use in therapy” (Karus Therapeutics Limited, priority 2012, dated 2018) can be followed below.

Read-outs that look alike come from different tables or passages of the source.

HDAC1, sequence (Q13547 whole entry, species assumed): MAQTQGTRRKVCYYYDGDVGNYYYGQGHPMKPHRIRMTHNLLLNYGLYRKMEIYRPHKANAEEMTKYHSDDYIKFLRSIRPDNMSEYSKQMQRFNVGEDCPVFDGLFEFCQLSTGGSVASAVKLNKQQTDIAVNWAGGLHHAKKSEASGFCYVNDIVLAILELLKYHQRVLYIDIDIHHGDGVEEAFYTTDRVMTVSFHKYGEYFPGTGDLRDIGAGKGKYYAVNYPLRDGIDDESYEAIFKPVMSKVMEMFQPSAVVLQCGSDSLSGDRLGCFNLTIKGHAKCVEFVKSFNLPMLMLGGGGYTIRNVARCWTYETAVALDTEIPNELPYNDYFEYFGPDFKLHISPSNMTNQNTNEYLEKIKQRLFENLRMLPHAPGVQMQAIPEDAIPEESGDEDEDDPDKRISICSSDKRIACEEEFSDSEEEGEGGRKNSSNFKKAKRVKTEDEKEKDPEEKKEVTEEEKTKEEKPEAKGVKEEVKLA
HDAC6, sequence (Q9UBN7 whole entry, species assumed): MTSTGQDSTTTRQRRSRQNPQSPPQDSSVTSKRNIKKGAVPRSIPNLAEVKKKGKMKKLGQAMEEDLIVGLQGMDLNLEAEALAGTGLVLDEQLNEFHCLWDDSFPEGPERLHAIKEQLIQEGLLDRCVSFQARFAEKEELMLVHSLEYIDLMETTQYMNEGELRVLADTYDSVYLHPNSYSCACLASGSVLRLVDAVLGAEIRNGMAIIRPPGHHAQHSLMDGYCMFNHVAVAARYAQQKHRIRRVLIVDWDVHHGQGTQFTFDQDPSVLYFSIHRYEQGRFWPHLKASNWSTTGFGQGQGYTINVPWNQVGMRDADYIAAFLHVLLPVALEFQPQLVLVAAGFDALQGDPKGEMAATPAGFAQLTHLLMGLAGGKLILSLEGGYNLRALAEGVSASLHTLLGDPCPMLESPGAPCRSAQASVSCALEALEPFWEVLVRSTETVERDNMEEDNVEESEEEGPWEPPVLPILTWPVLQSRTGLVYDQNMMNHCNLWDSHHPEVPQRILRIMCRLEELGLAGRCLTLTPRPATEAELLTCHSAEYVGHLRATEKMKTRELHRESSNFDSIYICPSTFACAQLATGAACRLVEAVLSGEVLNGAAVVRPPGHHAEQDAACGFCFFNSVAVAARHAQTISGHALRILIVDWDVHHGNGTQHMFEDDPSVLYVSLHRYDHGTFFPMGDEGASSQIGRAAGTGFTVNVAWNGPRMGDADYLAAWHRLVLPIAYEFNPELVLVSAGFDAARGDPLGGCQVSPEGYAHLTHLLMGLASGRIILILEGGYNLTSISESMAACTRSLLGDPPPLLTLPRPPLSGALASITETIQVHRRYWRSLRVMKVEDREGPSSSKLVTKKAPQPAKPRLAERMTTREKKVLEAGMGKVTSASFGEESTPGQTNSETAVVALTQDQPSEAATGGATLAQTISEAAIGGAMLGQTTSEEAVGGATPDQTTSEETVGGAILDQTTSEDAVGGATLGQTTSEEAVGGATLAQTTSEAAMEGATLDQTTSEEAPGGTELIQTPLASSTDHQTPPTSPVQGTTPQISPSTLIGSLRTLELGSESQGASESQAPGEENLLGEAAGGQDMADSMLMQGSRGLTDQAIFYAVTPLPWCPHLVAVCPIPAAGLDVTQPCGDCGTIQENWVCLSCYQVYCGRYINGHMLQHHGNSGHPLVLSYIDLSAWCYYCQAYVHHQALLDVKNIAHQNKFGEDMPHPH

On to `O=C(CCCCCCCN(c1ccc(F)cn1)c1nc(C(F)(F)F)ns1)NO` [Example HH, 8-((5-Fluoropyridin-2-yl)(3-(trifluoromethyl)1,2,4-thiadiazol-5-yl)amino)-N-hydroxyoctanamide], for which the IC50 (usually the point on the concentration scale where inhibition reaches its midpoint) was 1000 to 10000 nM at HDAC1 (setting [2]) and below 500 nM at HDAC6 (setting [3]).

Turning to `Cn1ccc(N(CCCCCCC(=O)NO)c2cc(-c3ccc(F)cc3)ccn2)n1` [Example Y, 7-((4-(4-Fluorophenyl)pyridin-2-yl)(1-methyl-1H-pyrazol-3-yl)amino)-N-hydroxyheptanamide], the IC50 on HDAC1 (setting [2]) and at HDAC6 (setting [3]) was below 500 nM each time.

For `Cc1nsc(N(CCCCCCCC(=O)NO)c2cc(-c3ccc(F)cc3)ccn2)n1` [Example FF, 8-((4-(4-Fluorophenyl)-pyridin-2-yl)(3-methyl-1,2,4-thiadiazol-5-yl)amino)-N-hydroxyoctanamide], the IC50 on HDAC1 (setting [2]) is 1000 to 10000 nM; at HDAC6 (setting [3]) it was below 500 nM.

Take `Cn1c(N(CCCCCCC(=O)NO)c2ccc(F)cn2)nc2ccccc21` [Example S, 7-((5-Fluoropyridin-2-yl)(1-methyl-1H-benzo[d]imidazol-2-yl)amino)-N-hydroxyheptanamide]: the results for the IC50 on HDAC1 (setting [2]) and at HDAC6 (setting [3]) were 500 to 1000 nM and below 500 nM, respectively.

For `Cc1nsc(N(CCCCCCC(=O)NO)c2cccnc2)n1` [Example B, N-Hydroxy-7-[(3-methyl-1,2,4-thiadiazol-5-yl)(pyridin-3-yl)amino]heptanamide], the IC50 at HDAC1 (setting [2]) and at HDAC6 (setting [3]) was below 500 nM throughout.

As for `Cc1nsc(N(CCCCCCC(=O)NO)c2ccccn2)n1` [Example A, N-Hydroxy-7-[(3-methyl-1,2,4-thiadiazol-5-yl)(pyridin-2-yl)amino]heptanamide], in data set [1], the bioavailability – broadly, dose-corrected exposure relative to a reference, in per cent – is 19%. Also, the IC50 is 2.32 µM with PC-3; 1.89 µM in the data set with A549; below 500 nM at HDAC1; 226 nM on HDAC1 (numeric value, read-out: IC50, HDAC1); below 500 nM on HDAC6; 1.76 nM on HDAC6 (numeric value, read-out: IC50, HDAC6).

On to `Cc1nsc(N(CCCCCCCC(=O)NO)c2ccc(F)cn2)n1` [Example DD, 8-((5-Fluoropyridin-2-yl)(3-methyl-1,2,4-thiadiazol-5-yl)amino)-N-hydroxyoctanamide], for which the IC50 at HDAC1 (setting [2]) was 1000 to 10000 nM; on HDAC6 (setting [3]) it was below 500 nM.

For `Cc1noc(N(CCCCCCCC(=O)NO)c2ccc(F)cn2)n1` [Example R, 8-((5-Fluoropyridin-2-yl)(3-methyl-1,2,4-oxadiazol-5-yl)amino)-N-hydroxyoctanamide], the IC50 is 1000 to 10000 nM on HDAC1 (setting [2]) and below 500 nM on HDAC6 (setting [3]).

With `Cc1nnc(N(CCCCCCCC(=O)NO)c2ccccn2)s1` [Example J, N-Hydroxy-8-((5-methyl-1,3,4-thiadiazol-2-yl)(pyridin-2-yl)amino)octanamide], the IC50 on HDAC1 (setting [2]) is 1000 to 10000 nM.

Consider `Cc1nnc(N(CCCCCCC(=O)NO)c2ccccn2)s1` [Example I, N-Hydroxy-7-((5-methyl-1,3,4-thiadiazol-2-yl)(pyridin-2-yl)amino)heptanamide], for which the IC50 at HDAC1 (setting [2]) was 500 to 1000 nM.

Turning to `Cc1nsc(N(CCCCCCC(=O)NO)c2cc(-c3ccc(F)cc3)ccn2)n1` [Example EE, 7-((4-(4-Fluorophenyl)pyridin-2-yl)(3-methyl-1,2,4-thiadiazol-5-yl)amino)-N-hydroxyheptanamide], the figures for the IC50 at HDAC1 (setting [2]) and on HDAC6 (setting [3]) were 1000 to 10000 nM and below 500 nM, respectively.

As to `O=C(CCCCCCN(c1ccccn1)c1nc(C(F)(F)F)ns1)NO` [Example AA], the IC50 at HDAC1 (setting [2]) lay within 1000 to 10000 nM.

On to `Cc1noc(N(CCCCCCC(=O)NO)c2ccc(F)cn2)n1` [Example Q, 7-((5-Fluoropyridin-2-yl)(3-methyl-1,2,4-oxadiazol-5-yl)amino)-N-hydroxyheptanamide], for which the IC50 at HDAC1 (setting [2]) was above 10000 nM; on HDAC6 (setting [3]), below 500 nM.

Consider `O=C(CCCCCCCN(c1ccc(F)cn1)c1nc2ccccc2o1)NO` [Example X, 8-(Benzo[d]oxazol-2-yl(5-fluoropyridin-2-yl)amino)-N-hydroxyoctanamide], for which the IC50 on HDAC1 (setting [2]) was 1000 to 10000 nM; on HDAC6 (setting [3]) it was below 500 nM.

As to `Cc1nsc(N(CCCCCCC(=O)NO)c2ccc(F)cn2)n1` [Example CC, 7-((5-Fluoropyridin-2-yl)(3-methyl-1,2,4-thiadiazol-5-yl)amino)-N-hydroxyheptanamide], the values for the IC50 on HDAC1 (setting [2]) and at HDAC6 (setting [3]) were 500 to 1000 nM and below 500 nM, respectively.

Regarding `Cn1ccc(N(CCCCCCCC(=O)NO)c2ccc(F)cn2)n1` [Example V, 8-((5-Fluoropyridin-2-yl)(1-methyl-1H-pyrazol-3-yl)amino)-N-hydroxyoctanamide], the figures for the IC50 at HDAC1 (setting [2]) and on HDAC6 (setting [3]) were above 10000 nM and below 500 nM, respectively.

For the compound `Cn1ccc(N(CCCCCCCC(=O)NO)c2cc(-c3ccc(F)cc3)ccn2)n1` [Example Z, 8-((4-(4-Fluorophenyl)pyridin-2-yl)(1-methyl-1H-pyrazol-3-yl)amino)-N-hydroxyoctanamide], the results for the IC50 on HDAC1 (setting [2]) and on HDAC6 (setting [3]) were above 10000 nM and below 500 nM, respectively.

Take `Cn1c(N(CCCCCCC(=O)NO)c2ccccn2)nc2ccccc21` [Example M, N-Hydroxy-7-((1-methyl-1H-benzo[d]imidazol-2-yl)(pyridin-2-yl)amino)heptanamide]: the IC50 on HDAC1 (setting [2]) was 1000 to 10000 nM.

With `O=C(CCCCCCCN(c1ccccn1)c1nccs1)NO` [Example LL, N-Hydroxy-8-(pyridin-2-yl(thiazol-2-yl)amino)octanamide], at HDAC1 (setting [2]), the IC50 is 1000 to 10000 nM.

For `O=C(CCCCCCCN(c1ccccn1)c1ncns1)NO` [Example P, N-Hydroxy-8-(pyridin-2-yl(1,2,4-thiadiazol-5-yl)amino)octanamide], at HDAC1 (setting [2]), the IC50 lay in the range of 1000 to 10000 nM.

Turning to `O=C(CCCCCCN(c1ccc(F)cn1)c1nc2ccccc2o1)NO` [Example W, 7-(Benzo[d]oxazol-2-yl(5-fluoropyridin-2-yl)amino)-N-hydroxyheptanamide], the figures for the IC50 at HDAC1 (setting [2]) and at HDAC6 (setting [3]) were 1000 to 10000 nM and below 500 nM, respectively.

On to `Cn1ccc(N(CCCCCCC(=O)NO)c2ccc(F)cn2)n1` [Example U, 7-((5-Fluoropyridin-2-yl)(1-methyl-1H-pyrazol-3-yl)amino)-N-hydroxyheptanamide], for which the IC50 is 1000 to 10000 nM on HDAC1 (setting [2]) and below 500 nM at HDAC6 (setting [3]).

In the case of `Cn1c(N(CCCCCCCC(=O)NO)c2ccc(F)cn2)nc2ccccc21` [Example T, 8-((5-Fluoropyridin-2-yl)(1-methyl-1H-benzo[d]imidazol-2-yl)amino)-N-hydroxyoctanamide], the IC50 at HDAC1 (setting [2]) was 1000 to 10000 nM; at HDAC6 (setting [3]), below 500 nM.

As for `O=C(CCCCCCN(c1ccccn1)c1nccs1)NO` [Example KK, N-Hydroxy-7-(pyridin-2-yl(thiazol-2-yl)amino)heptanamide], the IC50 at HDAC1 (setting [2]) lay within 1000 to 10000 nM.

Turning to `Cc1noc(N(CCCCCCCC(=O)NO)c2ccccn2)n1` [Example D, N-Hydroxy-8-((3-methyl-1,2,4-oxadiazol-5-yl)(pyridin-2-yl)amino)octanamide], the IC50 at HDAC1 (setting [2]) is 1000 to 10000 nM.

For `O=C(CCCCCCCN(c1ccccn1)c1nncs1)NO` [Example H, N-Hydroxy-8-(pyridin-2-yl(1,3,4-thiadiazol-2-yl)amino)octanamide], on HDAC1 (setting [2]), the IC50 was in the range of 1000 to 10000 nM.

In the case of `O=C(CCCCCCN(c1ccc(F)cn1)c1nc(C(F)(F)F)ns1)NO` [Example GG, 7-((5-Fluoropyridin-2-yl)(3-(trifluoromethyl)1,2,4-thiadiazol-5-yl)amino)-N-hydroxyheptanamide], the IC50 on HDAC1 (setting [2]) is 500 to 1000 nM; on HDAC6 (setting [3]), below 500 nM.

Take `O=C(CCCCCCN(c1ccccn1)c1ncns1)NO` [Example O, N-Hydroxy-7-(pyridin-2-yl(1,2,4-thiadiazol-5-yl)amino)heptanamide]: the IC50 at HDAC1 (setting [2]) lay in the range of 500 to 1000 nM.
